Experimental data from patent US20110144056A1, “PYRAZOLE DERIVATIVES USEFUL AS INHIBITORS OF FAAH” (priority 2008, published 2011).

How the values were obtained:
[1] = target: T1, FAAH (Rattus norvegicus, UniProt P97612); assay: FAAH whole cell assay, CHO cells expressing rat FAAH; assay type: cell-based
T1 construct: expressed in transfected cells; cDNA by RT-PCR from brain cDNA (BD Biosciences)
T1 sequence (P97612 1-579): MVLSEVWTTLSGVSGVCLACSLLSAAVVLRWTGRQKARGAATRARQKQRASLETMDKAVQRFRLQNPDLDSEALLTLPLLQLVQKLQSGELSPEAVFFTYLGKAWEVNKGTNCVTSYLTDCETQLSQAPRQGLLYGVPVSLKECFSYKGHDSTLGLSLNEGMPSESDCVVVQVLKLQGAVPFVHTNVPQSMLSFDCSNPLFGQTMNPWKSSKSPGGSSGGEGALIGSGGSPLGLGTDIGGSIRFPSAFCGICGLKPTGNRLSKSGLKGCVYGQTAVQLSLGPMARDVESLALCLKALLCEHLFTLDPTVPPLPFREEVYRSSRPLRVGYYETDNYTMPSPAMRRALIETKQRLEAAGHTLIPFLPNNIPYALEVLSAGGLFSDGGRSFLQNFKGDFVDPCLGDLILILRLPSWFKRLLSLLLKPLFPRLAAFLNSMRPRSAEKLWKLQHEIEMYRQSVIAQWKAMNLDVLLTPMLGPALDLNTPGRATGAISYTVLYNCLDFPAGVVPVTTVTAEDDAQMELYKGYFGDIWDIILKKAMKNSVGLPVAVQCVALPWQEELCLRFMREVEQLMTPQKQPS
Source text: (§1) Murine (accession number NM_010173) and Rat FAAH (accession number NM_024132) was amplified by reverse transcriptase polymerase chain reaction (RT-PCR) from brain cDNA (BD Biosciences, San Jose, Calif.) using primers 1 and 2 or primers 1 and 3 respectively (see Table). The resulting PCR product was ligated into pCR4TOPO and DNA sequence confirmed. The full length murine FAAH was subcloned into the mammalian expression vector, pcDEFneo using either EcoRI (murine) or KpnI and EcoRI (rat) restriction sites. Chinese hamster ovary cells (CHO) were transfected following manufacturers protocol (AMAXA). Forty eight hours post transfection, cells were trypsinized and transferred to 96 well plates in Iscove's DMEM media supplemented with 2 mM Glutamine, 10% fetal calf serum, 1 mg/ml geneticin and HT Supplement (0.1 mM sodium hypoxanthine, 0.016 mM thymidine) in order to isolate single clones. Following selection in geneticin, individual clones were selected and FAAH activity was assessed using a whole cell fluorescent anandamide assay, modified from Ramarao et al (2005). Following removal of tissue culture media cells were dislodged following addition of Cellstripper (Mediatech, Inc. Manassas, Va.) and transferred to 96 well black clear bottom assay plate, centrifuged at 1,000 rpm for 3 mins and media removed and replaced with assay buffer (50 mM Tris pH8.0, 1 mM EDTA, 0.1% fatty acid free BSA). The reaction was initiated by addition of fluorescent substrate, AMC Arachidonoyl Amide (Cayman Chemical, Ann Arbor, Mich.) to 1 μM and reaction allowed to proceed for 2 hours at room temperature. Release of fluorescence was monitored in a CytoFluor Multiplate Reader. Cells expressing the highest amount of FAAH activity were selected for study with FAAH inhibitors.
(§2) Assays are performed on either cell lysate or microsome fractions prepared as described or in whole cell format employing either the fluorescent substrate AAMCA (Cayman chemical, Ann Arbor, Mich.,) or ^3H-anandmaide ([ETHANOLAMINE-1-3H]American Radiolabeled Chemicals; 1 mCi/ml). The cell lysate or microsome assay is performed in Costar black wall, clear bottom plates by adding FAAH_CHO (whole cell, cell lysate or microsome) in assay buffer (50 mM Phosphate, pH 8.0, 1 mM EDTA, 200 mM KCl, 0.2% glycerol, 0.1% fatty acid free BSA) to each well, followed by either DMSO or compound and allowed to incubate at 22-25° C. for fifteen minutes. AAMCA substrate was used to achieve a final concentration of 1 μM and reaction allowed to proceed at room temperature for 1-3 hours. Fluorescent release as a measure of FAAH activity was monitored by reading the plate in a CytoFluor Multiplate Reader ([…]). Whole cell assay is conducted with cells harvested after rinsing tissue culture flasks three times with Ca^++Mg^++ free PBS, incubating for 10 mm in Enzyme free dissociation media and centrifuging for 5 minutes at 1,000 rpm in table top centrifuge. Cells are resuspended in assay buffer at desired cell number in (4×10^4 cells/assay in 96-well format; 1×10^4 cells/assay in 384-well format) and assayed as described.

[2] = target: T2, FAAH (Homo sapiens, UniProt O00519); assay: FAAH enzyme assay, lysate of CHO cells expressing human FAAH; assay type: biochemical; conditions: CHO cell lysate, read-out: Human Lysate
T2 construct: The full length FAAH was subcloned into the mammalian expression vector, pcDEF.neo; expressed in transfected cells; cDNA from Origene
T2 sequence (O00519 1-579): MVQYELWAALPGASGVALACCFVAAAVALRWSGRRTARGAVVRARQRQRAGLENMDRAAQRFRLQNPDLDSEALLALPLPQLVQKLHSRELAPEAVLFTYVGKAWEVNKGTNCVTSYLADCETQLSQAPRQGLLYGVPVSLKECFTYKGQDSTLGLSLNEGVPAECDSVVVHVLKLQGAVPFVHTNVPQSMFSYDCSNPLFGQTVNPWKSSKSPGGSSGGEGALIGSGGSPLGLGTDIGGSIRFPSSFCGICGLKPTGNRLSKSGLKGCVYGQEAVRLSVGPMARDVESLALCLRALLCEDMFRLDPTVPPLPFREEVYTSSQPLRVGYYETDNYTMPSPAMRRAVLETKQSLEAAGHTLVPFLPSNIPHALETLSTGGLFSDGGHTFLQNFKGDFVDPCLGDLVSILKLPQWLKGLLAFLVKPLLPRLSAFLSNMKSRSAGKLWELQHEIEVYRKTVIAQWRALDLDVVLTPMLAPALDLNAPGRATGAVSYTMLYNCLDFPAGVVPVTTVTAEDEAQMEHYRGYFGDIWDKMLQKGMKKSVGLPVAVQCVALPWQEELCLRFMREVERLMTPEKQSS
Source text: (§3) To assist in assay development stable cell lines for human, murine and rat full length FAAH were developed. Human FAAH cDNA (Accession No: NM_001441.1) was purchased from Origene (Rockville, Md.). The full length FAAH was subcloned into the mammalian expression vector, pcDEF.neo, using XbaI and […] restriction sites and used for stable cell line generation.
CHO cells expressing FAAH were used to prepare either crude cell lysate or microsome fractions. To harvest cells, tissue culture media was decanted, the monolayer washed three times with Ca^++Mg^++ free PBS and cells recovered after 15 min in enzyme free dissociation media (Millipore Corp, Billerica, Mass.). Cells were collected by centrifuging at 2000 rpm for 15 min. and the cell pellet re-suspended with 50 mM HEPES (pH 7.4) containing 1 mM EDTA and the protease inhibitors aprotinin (1 mg/ml) and leupeptin (100 μM). The suspension was sonicated at 4° C. and the cell lysate recovered after centrifuging at 12,000×g (14,600 rpm, SS34 rotor) for 20 min at 4° C. to form a crude pellet of cell debris, nuclei, peroxisomes, lysosomes, and mitochondria; the supernatant or cell lysate was used for FAAH enzyme assay. In some cases, microsomes fractions enriched in FAAH were prepared by centrifuging the cell lysate further at 27,000 rpm (100,000×g) in SW28 rotor for 50 minutes at 4° C. The pellet containing FAAH-enriched microsomes was re-suspend in 50 mM HEPES, (pH 7.4) 1 mM EDTA, and any remaining DNA sheared by passage of material through a 23 gauge needle and aliquots of enzyme were store at −80° C. prior to use.
(American Radiolabeled Chemicals; 1 mCi/ml) with FAAH (Life Sciences (1995), 56, 1999-2005 and Journal of Pharmacology and Experimented Therapeutics (1997), 283, 729-734), Analytical. Biochemistry (2003), 318, 270-5. In addition, routine assays were performed monitoring hydrolysis of arachidonyl-7-amino-4-methylcoumarin amide (AAMCA) by following increase in fluorescence upon release of 7-amino 4-methyl coumarin (λEX=355 nm, (λEM=460 nm). Analytical. Biochemistry (2005). 343, 143-51.
as §2
Alternatively, assays are performed using anandamide [ethanolamine 1-^3H] (specific activity of 10 Ci/mmol) diluted with cold anandamide to achieve a final assay concentration of 1 μM anandamide (˜50,000 cpm). Enzyme (CHO cell lysate, brain or liver homogenate) is incubated in assay buffer (50 mM Phosphate, pH 8.0, 1 mM EDTA, 200 mM KCl, 0.2% glycerol, 0.1% fatty acid free BSA) with inhibitor at 25° C. for 30 minutes. The reaction was terminated by addition of 2 volumes of chloroform:methanol (1:1) and mixed by vortexing. […]

[3] = target: T2, FAAH; assay: FAAH whole cell assay, CHO cells expressing human FAAH; assay type: cell-based; conditions: read-out: Human whole cell
Source text: as §3, §1, §2

| IC50 [1] | IC50 [2] | IC50 [3] | SMILES |
| --- | --- | --- | --- |
| 294 nM | 271 nM | 235 nM | CS(=O)(=O)c1ccc(-c2c(Sc3ccc(Cl)cc3)cnn2-c2ccc(F)cc2)cc1 [Ex 25, 4-[(4-Chlorophenyl)thio]-2-(4-fluorophenyl)-3-[4-(methylsulfonyl)phenyl]-1H-pyrazole] |
| 137 nM | 101 nM | 590 nM | [O-][n+]1cccc(-n2cc(Sc3ccc(Cl)cc3)c(-c3ccc(-c4ncon4)cc3)n2)c1 [Example 75] |
| 157 nM | 121 nM | 395 nM | Clc1ccc(Sc2cn(-c3ccccc3)nc2-c2ccc(-c3c[nH]nn3)cc2)cc1 [Example 88, 4-(4-{4-[(4-Chlorophenyl)thio]-1-phenyl-1H-pyrazol-3-yl}phenyl)-1H-1,2,3-triazole] |
| 18 nM | 26 nM | 66 nM | CC(C)(O)c1cnc(-c2nn(-c3ccc(F)cn3)cc2Sc2ccc(Cl)cc2)cn1 [Example 229, 2-{5-[4-[(4-Chlorophenyl)thio]-1-(5-fluoropyridin-2-yl)-1H-pyrazol-3-yl}pyrazin-2-yl]propan-2-ol] |

| SMILES | IC50 [1] | IC50 [2] | IC50 [3] |
| --- | --- | --- | --- |
| O=C(NCCCl)c1ccc(-c2nn(-c3ccccc3)cc2Sc2ccc(Cl)cc2)cc1 [Example 121, N-(2-Chloroethyl)-4-{4-[(4-chlorophenyl)thio]-1-phenyl-1H-pyrazol-3-yl}benzamide] | 52 nM | 80 nM | 124 nM |
